Results on three compounds are retold here after publication PMC8879107, “A3 Adenosine Receptor Antagonists with Nucleoside Structures and Their Anticancer Activity” (Pharmaceuticals, 2022).

In assay [1] the target is T1, human A3AR (Homo sapiens, UniProt P0DMS8).
T1 sequence (P0DMS8 1-318): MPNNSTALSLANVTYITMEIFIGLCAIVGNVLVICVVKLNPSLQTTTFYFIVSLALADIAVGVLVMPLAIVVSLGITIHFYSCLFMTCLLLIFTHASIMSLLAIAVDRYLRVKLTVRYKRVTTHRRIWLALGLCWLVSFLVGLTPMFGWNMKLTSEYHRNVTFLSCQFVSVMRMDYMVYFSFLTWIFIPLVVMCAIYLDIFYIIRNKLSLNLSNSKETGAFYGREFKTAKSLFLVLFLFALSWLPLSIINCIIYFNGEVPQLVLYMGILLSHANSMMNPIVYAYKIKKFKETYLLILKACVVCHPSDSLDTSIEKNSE
The assay can be described thus: Radioligand binding assay, displacement of [3H]HEMADO in CHO cell membranes. As to conditions: ratio of Ki values; for A1/A3: A3AR selectivity vs A1AR; for A2A/A3: A3AR selectivity vs A2AAR. As for the experimental part:
In the case of A2BAR, the potency of selected compounds was determined through a functional GloSensor cAMP assay.
All pharmacological methods followed the procedures as described earlier. In brief, membranes for radioligand binding were prepared from CHO cells stably transfected with human adenosine receptor subtypes through two centrifugations at different speeds. The first low-speed (1000 g) centrifugation allowed the removing of cell fragments and nuclei, while the second, performed at high speed (100,000 g), allowed the precipitation of the crude membrane fractions.
The binding affinity of the novel compounds was evaluated using radioligand competition experiments in CHO cells stably expressing hA1AR, hA2AAR, and hA3AR subtypes. […] Results were expressed as Ki values (dissociation constants), which were calculated with the program GraphPad (GraphPAD Software, San Diego, CA, USA). Each concentration was tested three–five times in duplicate and the values are given as the mean ± standard error (S.E.).
In general terms: In a radioligand displacement assay an active substance lowers the binding of a labelled ligand.

Another assay concerns the target T2, human recombinant A1AR (Homo sapiens, UniProt P30542).
T2 sequence (P30542 1-326): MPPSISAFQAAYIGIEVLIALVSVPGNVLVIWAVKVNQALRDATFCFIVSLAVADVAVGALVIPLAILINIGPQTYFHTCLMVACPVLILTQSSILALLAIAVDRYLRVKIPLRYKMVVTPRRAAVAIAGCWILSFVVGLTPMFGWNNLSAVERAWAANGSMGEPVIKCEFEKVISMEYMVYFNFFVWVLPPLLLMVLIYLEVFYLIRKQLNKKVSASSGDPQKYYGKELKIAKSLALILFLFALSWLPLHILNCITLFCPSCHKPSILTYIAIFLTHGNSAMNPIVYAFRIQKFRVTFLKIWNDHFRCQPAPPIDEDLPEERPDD
The settings on record: [3H]CCPA, CHO membranes; read-out: hA1R (Ki nM); cited from earlier work.

For the next assay, the target named is human recombinant A2AAR (Homo sapiens, UniProt P29274). The settings on record: [3H]NECA, CHO membranes; read-out: hA2AR (Ki nM); cited from earlier work.
Assay [2] concerns the target T1, human A3AR. As to conditions: cited from earlier work.
Assay [3] deals with human prostate (PC3), colon (Caco-2) and hepatocyte (Hep G2) carcinomas. Set-up: method as in PMID 29763615. The settings on record: all three tumor cell lines PC3, Caco-2, Hep G2; cited from earlier work.
Assay [4] concerns PC3 prostate cancer cell line. The assay can be described thus: Sulforhodamine B (SRB) cell growth inhibition assay. The settings on record: for GI50 / CC50 / IC100: Homo sapiens, 48 h; for CC50: read-out: LC50 (μM); for IC100: read-out: TGI (μM); for TGI: PC3, 48 h, concentration to inhibit 100% of cell growth, mean ± SD.
Assay [5] deals with T1, human A3AR. The assay can be described thus: GloSensor cAMP accumulation assay (agonism/antagonism) at A3AR in CHO cells. The assay is classed as cell-based. Set-up: expressed in transfected cells; host or cells: CHO cells stably expressing A3AR and the GloSensor biosensor plasmid. As for the experimental part:
CHO cells stable expressing A2B or A3ARs and the plasmid encoding the biosensor were used to study functional agonism and antagonism of understudy ligands. The desired cell number was incubated in equilibration medium containing a 3% v/v GloSensor cAMP reagent stock solution, 10% FBS and 87% of CO2 independent media. After 2 h of incubation, cells were dispensed in wells of 384 well plate and when a steady-state basal signal was obtained the agonism profile was studied, adding to wells the reference agonist NECA or compounds at different concentrations. In the case of the Gi coupled receptor A3AR Forskolin (FSK) 10 μM was added 10 min after the agonists and various luminescence readings were performed at different incubation times.
The antagonist profile of the compounds was evaluated by assessing their ability to counteract an agonist-induced increase or decrease (A2B and A3ARs, respectively) of cAMP accumulation. The cells were incubated with different antagonist concentrations and then treated with a fixed dose of NECA (10 μM for A2BAR and 1 μM for A3AR). FSK 10 μM was added 10 min after the agonists and various luminescence reads were performed at different incubation times.
Responses were expressed as percentage of the maximal relative luminescence units (RLU) and concentration–response curves were fitted by a nonlinear regression with the Prism program (GraphPAD Software, San Diego, CA, USA). The agonist or antagonist profile of compounds was expressed as EC50 or IC50, respectively. Each concentration was tested three–five times in duplicate and the values are given as the mean ± S.E.
Background: cAMP levels reflect the balance of adenylyl cyclase and phosphodiesterase activity.

Assay [6] concerns the target T1, human A3AR. Details: expressed in transfected cells; host or cells: CHO cells stably expressing A3AR and the GloSensor biosensor plasmid; method as in PMID 29763615, PMID 19839592. The settings on record: cited from earlier work.
Where [7] appears, read: A3AR affinity repeated in Table 2, read-out: A3AR.
Setting [8] is: [3H]HEMADO, CHO membranes, read-out: hA3R (Ki nM).

Read-outs that look alike come from different tables or passages of the source.

human recombinant A2AAR, sequence (P29274 whole entry): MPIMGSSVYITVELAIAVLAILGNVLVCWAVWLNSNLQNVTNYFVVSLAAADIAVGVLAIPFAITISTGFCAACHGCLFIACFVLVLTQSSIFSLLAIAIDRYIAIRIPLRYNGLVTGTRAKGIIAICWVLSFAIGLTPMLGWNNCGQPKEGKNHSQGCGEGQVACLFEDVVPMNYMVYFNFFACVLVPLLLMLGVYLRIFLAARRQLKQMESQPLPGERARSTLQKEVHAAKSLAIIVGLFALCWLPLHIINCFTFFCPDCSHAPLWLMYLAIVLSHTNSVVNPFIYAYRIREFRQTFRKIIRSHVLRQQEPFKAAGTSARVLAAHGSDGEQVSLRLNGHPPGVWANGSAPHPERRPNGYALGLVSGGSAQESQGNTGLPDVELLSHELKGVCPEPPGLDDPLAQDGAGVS

In the case of `CCCCC#Cc1nc(NCC(c2ccccc2)c2ccccc2)c2ncn([C@@H]3O[C@H](CO)[C@@H](O)[C@H]3O)c2n1` [Compound 4, 2-Hexynyl-N^6-(2,2-diphenylethyl)adenosine], on human A3AR [1], the A1/A3 is given as 36 fold and the A2A/A3 stood at 6 fold. Besides, the Ki at human recombinant A1AR was 984 nM. Besides, the Ki on human recombinant A2AAR is 153 nM. Further, the Ki at human A3AR [2] (setting [7]) was 27 nM. In addition, at human A3AR [2] (setting [8]), the Ki was 27 nM. Moreover, in assay [3], the “anticancer effect (cell growth inhibition)” value is “very good antitumor activity”. In addition, in assay [4], the GI50 (usually the concentration at which growth is held to half of that of the control) is 16 ± 0.5 µM, the CC50 was found to be 80 ± 9.8 µM, the IC100 worked out at 35 µM and the TGI (usually the concentration giving total growth inhibition) turned out to be 35 ± 1.5 µM. Further, the IC50 (in general, the concentration needed to halve the response being measured) on human A3AR [5] (antagonism: counteracting agonist (NECA 1 μM) induced decrease of cAMP, forskolin 10 μM, mean ± S.E.) came out at 380 ± 80 nM. Besides, the “functional behaviour at A3AR (agonist/antagonist)” value on human A3AR [5] (forskolin 10 µM stimulated cAMP, compared to Cl-IB-MECA) is “antagonists”.

As to `CNC(=O)[C@H]1O[C@@H](n2cnc3c(NC)nc(C#Cc4ccccc4)nc32)[C@H](O)[C@@H]1O` [Compound 3, N^6-methyl-2-phenylethynyladenosine-5′-N-methyluronamide, reference compound], the “anticancer effect (cell growth inhibition)” value in assay [3] is “almost inactive”. For the same compound, the “functional behaviour at A3AR” value on human A3AR [6] is recorded as “full A3AR agonist”.

In the case of `OC[C@H]1O[C@@H](n2cnc3c(NCCc4ccccc4)nc(NCCc4ccccc4)nc32)[C@H](O)[C@@H]1O` [Compound 5, 2-Phenylethylamino-N^6-(2-phenylethyl)adenosine], at human A3AR [1], the A1/A3 amounted to 1082 fold and the A2A/A3 is listed as 4145 fold. The Ki at human recombinant A1AR is 357 nM. Besides, the Ki at human recombinant A2AAR is 1370 nM. The Ki at human A3AR [2] (setting [7]) is 0.33 nM. For the same compound, the Ki at human A3AR [2] (setting [8]) was 0.33 nM. For the same compound, the “anticancer effect (cell growth inhibition)” value in assay [3] was “very good antitumor activity”. Besides, in assay [4], it took 237 ± 9.4 µM to inhibit growth by half (GI50), the CC50 was > 500 µM, the IC100 is > 500 µM and the “TGI” value was >500 µM.
